# Patent publication US12319655B2, “RAF kinase inhibitors and methods of use thereof” (Deciphera Pharmaceuticals, LLC, priority 2021, dated 2025)
# pIC50: −log10 of the molar value.
# Assays:
# [1] = biological target: A-Raf kinase (SEQ. ID No: 1) (Homo sapiens (Human), UniProt P10398, Y301D/Y302D); assay: Biochemical Assay for A-Raf (1); conditions: Table J, assay version (1); read-out: ARAF (1) IC50
# Method: Biochemical Assay for A-Raf (1)
# (§1) Activity of A-Raf kinase (SEQ. ID No: 1) was determined spectroscopically using a coupled pyruvate kinase/lactate dehydrogenase assay that continuously monitors the ATP hydrolysis-dependent oxidation of NADH (e.g., Schindler et al., Science, 2000, 289, 1938-1942). Assays were conducted in 384-well plates (100 μL final volume) using 5.55 nM A-Raf (Sigma), 1.5 units pyruvate kinase, 2.1 units lactate dehydrogenase, 1 mM phosphoenol pyruvate, 0.28 mM NADH, 30.1 nM MEK (SignalChem), and 1 mM ATP in assay buffer (100 mM Tris, pH 7.5, 15 mM MgCl2, 0.5 mM DTT, 0.1% octyl-glucoside, 0.002% (w/v) BSA, and 0.002% Triton X-100). Inhibition of A-Raf was measured by adding serial diluted test compound (final assay concentration of 1% DMSO). A decrease in absorption at 340 nm was monitored continuously for 6 h at 30° C. on a multi-mode microplate reader (BioTek). The reaction rate was calculated using the 4 to 5 h time frame. The reaction rate at each concentration of compound was converted to percent inhibition using controls (i.e., reaction with no test compound and reaction with a known inhibitor) and IC50 values were calculated by fitting a four-parameter sigmoidal curve to the data using Prism (GraphPad software).
# [2] = biological target: B-Raf kinase (SEQ. ID NO: 2) (Homo sapiens (Human), UniProt P15056); assay: Biochemical Assay for B-Raf (1); conditions: Table J, assay version (1); read-out: BRAF (1) IC50
# B-Raf kinase (SEQ. ID NO: 2), sequence (P15056 416-766): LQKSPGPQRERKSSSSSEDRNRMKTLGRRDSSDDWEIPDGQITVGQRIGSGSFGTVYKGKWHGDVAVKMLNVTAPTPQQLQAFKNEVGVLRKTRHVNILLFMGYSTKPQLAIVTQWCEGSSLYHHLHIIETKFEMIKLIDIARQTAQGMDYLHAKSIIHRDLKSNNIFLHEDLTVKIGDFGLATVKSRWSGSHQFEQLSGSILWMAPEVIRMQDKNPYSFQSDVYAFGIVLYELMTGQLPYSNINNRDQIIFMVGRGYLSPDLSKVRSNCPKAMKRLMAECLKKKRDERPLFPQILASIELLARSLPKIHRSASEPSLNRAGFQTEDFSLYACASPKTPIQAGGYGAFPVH
# Method: Biochemical Assay for B-Raf (1)
# as §1, with “B-Raf” for “A-Raf”, “NO: 2)” for “No: 1)”, “0.13” for “5.55”, “Ph” for “pH”
# [3] = biological target: C-Raf kinase (SEQ. ID NO: 3) (Homo sapiens (Human), UniProt P04049, Y340D/Y341D); assay: Biochemical Assay for C-Raf (1); conditions: Table J, assay version (1); read-out: CRAF (1) IC50
# C-Raf kinase (SEQ. ID NO: 3), sequence (P04049 307-648 Y340D/Y341D): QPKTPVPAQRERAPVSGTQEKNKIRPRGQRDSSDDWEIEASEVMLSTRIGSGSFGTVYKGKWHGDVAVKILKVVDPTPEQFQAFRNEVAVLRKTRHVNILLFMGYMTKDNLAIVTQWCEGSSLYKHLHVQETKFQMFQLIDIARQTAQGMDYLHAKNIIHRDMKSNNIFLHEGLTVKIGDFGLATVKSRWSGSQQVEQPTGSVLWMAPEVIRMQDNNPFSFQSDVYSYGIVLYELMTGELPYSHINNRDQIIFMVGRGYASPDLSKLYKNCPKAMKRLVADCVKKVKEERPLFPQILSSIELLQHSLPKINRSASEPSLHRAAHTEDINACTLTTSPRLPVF
# Method: Biochemical Assay for C-Raf (1)
# as §1, with “C-Raf” for “A-Raf”, “NO: 3)” for “No: 1)”, “0.43” for “5.55”, “Ph” for “pH”
# [4] = biological target: B-Raf (V600E) (SEQ. ID NO: 4) kinase (Homo sapiens (Human), UniProt P15056, V600E); assay: Biochemical Assay for B-Raf (V600E) (1); conditions: Table J, BRAF V600E, assay version (1); read-out: BRAF VE (1) IC50
# B-Raf (V600E) (SEQ. ID NO: 4) kinase, sequence (P15056 416-766 V600E): as the sequence (P15056 416-766) above, with V185E counted along it
# Method: Biochemical Assay for B-Raf (V600E) (1)
# Activity of B-Raf (V600E) (SEQ. ID NO: 4) kinase was determined spectroscopically using a coupled pyruvate kinase/lactate dehydrogenase assay that continuously monitors the ATP hydrolysis-dependent oxidation of NADH (e.g., Schindler et al., Science, 2000, 289, 1938-1942). Assays were conducted in 384-well plates (100 μL final volume) using 0.03 nM B-Raf (SignalChem), 1.5 units pyruvate kinase, 2.1 units lactate dehydrogenase, 1 mM phosphoenol pyruvate, 0.28 mM NADH, 30.1 nM MEK (SignalChem), and 1 mM ATP in assay buffer (100 mM Tris, Ph 7.5, 15 mM MgCl2, 0.5 mM DTT, 0.1% octyl-glucoside, 0.002% (w/v) BSA, and 0.002% Triton X-100). Inhibition of B-Raf (V600E) was measured by adding serial diluted test compound (final assay concentration of 1% DMSO). A decrease in absorption at 340 nm was monitored continuously for 6 h at 30° C. on a multi-mode microplate reader (BioTek). The reaction rate was calculated using the 3 to 4 h time frame. The reaction rate at each concentration of compound was converted to percent inhibition using controls (i.e., reaction with no test compound and reaction with a known inhibitor) and IC50 values were calculated by fitting a four-parameter sigmoidal curve to the data using Prism (GraphPad software).
# A-Raf kinase (SEQ. ID No: 1), sequence (P10398 other isoform, or with tags, fused parts or gaps Y301D (already in the parent)/Y302D (already in the parent)): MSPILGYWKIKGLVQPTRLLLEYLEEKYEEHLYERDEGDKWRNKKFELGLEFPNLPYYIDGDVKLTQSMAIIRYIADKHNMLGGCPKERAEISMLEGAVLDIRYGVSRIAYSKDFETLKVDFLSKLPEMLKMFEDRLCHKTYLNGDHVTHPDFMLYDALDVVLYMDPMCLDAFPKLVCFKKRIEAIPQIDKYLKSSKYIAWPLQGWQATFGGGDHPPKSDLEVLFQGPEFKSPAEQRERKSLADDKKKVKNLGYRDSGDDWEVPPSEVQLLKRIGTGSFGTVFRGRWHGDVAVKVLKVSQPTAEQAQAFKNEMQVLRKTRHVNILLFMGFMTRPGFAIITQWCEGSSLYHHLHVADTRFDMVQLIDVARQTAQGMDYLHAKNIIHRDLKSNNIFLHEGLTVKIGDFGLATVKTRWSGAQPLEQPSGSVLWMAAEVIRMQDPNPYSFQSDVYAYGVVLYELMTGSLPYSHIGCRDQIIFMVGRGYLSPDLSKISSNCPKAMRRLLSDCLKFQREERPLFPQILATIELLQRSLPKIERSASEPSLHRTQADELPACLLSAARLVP
pIC50 [1],pIC50 [2],pIC50 [3],pIC50 [4],Compound
5.00 to 6.00,5.00 to 6.00,6.30 to 7.00,≥ 7.00,CC(=O)Nc1cc(-c2cc(-c3cc(NC(=O)c4ccnc(C(F)(F)F)c4)ccc3C)cc(C(C)(C)O)n2)ccn1 [Example 33]
5.00 to 6.00,5.00 to 6.00,5.00 to 6.00,5.00 to 6.00,CC(=O)Nc1cc(-c2cc(-c3cc(NC(=O)c4ccnc(C(F)(F)F)c4)ccc3C)nn(C)c2=O)ccn1 [Example 34]
5.00 to 6.00,5.00 to 6.00,5.00 to 6.00,5.00 to 6.00,CNC(=O)c1cc(-c2cc(-c3cc(NC(=O)c4ccnc(C(F)(F)F)c4)ccc3C)nn(C)c2=O)ccn1 [Example 51]
5.00 to 6.00,5.00 to 6.00,6.00 to 6.30,≥ 7.00,CNC(=O)c1cc(-c2cc(-c3cc(NC(=O)c4ccnc(C(F)(F)F)c4)ccc3C)cc(=O)n2C)ccn1 [Example 67]
5.00 to 6.00,5.00 to 6.00,6.00 to 6.30,6.30 to 7.00,Cc1ncc(NC(=O)c2ccnc(C(C)(C)C#N)c2)cc1-c1nccc(-c2ccnc3c2CC(=O)N3)n1 [Example 93]
5.00 to 6.00,5.00 to 6.00,5.00 to 6.00,6.30 to 7.00,CNC(=O)c1cc(-c2cc(-c3cc(NC(=O)c4ccnc(C(F)F)c4)c(F)cc3C)cc(=O)n2C)ccn1 [Example 115]
5.00 to 6.00,6.30 to 7.00,6.30 to 7.00,≥ 7.00,COCCNc1cc(-c2cncc(-c3cc(NC(=O)c4ccnc(C(F)(F)F)c4)ccc3C)n2)ccn1 [Example 119]
5.00 to 6.00,6.30 to 7.00,≥ 7.00,≥ 7.00,CNC(=O)c1cc(-c2cc(-c3cc(NC(=O)c4cc(C(F)(F)F)ccn4)ccc3C)ccn2)ccn1 [Example 126]
5.00 to 6.00,≥ 7.00,≥ 7.00,≥ 7.00,COCC(=O)Nc1cc(-c2nccc(-c3cc(NC(=O)c4ccnc(C(F)(F)F)c4)ccc3C)n2)ccn1 [Example 137]
5.00 to 6.00,6.00 to 6.30,6.30 to 7.00,≥ 7.00,CNC(=O)c1cc(-c2cncc(-c3cc(NC(=O)c4cc(C(F)(F)F)cc(CN(C)C)n4)ccc3C)n2)ccn1 [Example 147]
5.00 to 6.00,≥ 7.00,≥ 7.00,≥ 7.00,Cc1ccc(NC(=O)c2cc(C(F)(F)F)ccn2)cc1-c1cncc(-c2ccnc(NC(=O)C3CC3)c2)n1 [Example 167]
5.00 to 6.00,6.30 to 7.00,6.30 to 7.00,≥ 7.00,CNC(=O)c1cc(-c2cncc(-c3cc(NC(=O)c4ccnc(C(C)(C)C#N)c4)c(F)cc3C)n2)ccn1 [Example 170]
6.30 to 7.00,≥ 7.00,≥ 7.00,≥ 7.00,Cc1ccc(NC(=O)c2ccnc(C3(C#N)CC3)c2)cc1-c1cncc(-c2ccnc(NC(=O)C3CC3)c2)n1 [Example 183]
5.00 to 6.00,≥ 7.00,≥ 7.00,≥ 7.00,Cc1ccc(NC(=O)c2cc(C(F)(F)F)ccn2)cc1-c1ccnc(-c2ccnc(NC(=O)C3CC3)c2)n1 [Example 188]
5.00 to 6.00,6.30 to 7.00,6.30 to 7.00,≥ 7.00,Cc1ccc(NC(=O)c2ccnc(C(C)(C)C#N)c2)cc1-c1ccnc(-c2ccnc(NC(=O)C(C)(C)C)c2)c1 [Example 206]
5.00 to 6.00,5.00 to 6.00,6.00 to 6.30,6.30 to 7.00,COC(C)(C)C(=O)Nc1cc(-c2cccc(-c3cc(NC(=O)c4ccnc(C(C)(C)C#N)c4)cnc3C)c2)ncn1 [Example 208]
5.00 to 6.00,5.00 to 6.00,6.00 to 6.30,6.30 to 7.00,COC(C)(C)C(=O)Nc1cc(-c2cc(-c3cc(NC(=O)c4ccnc(C(C)(C)C#N)c4)cnc3C)ccn2)ccn1 [Example 209]
5.00 to 6.00,6.00 to 6.30,6.00 to 6.30,≥ 7.00,COC(C)(C)C(=O)Nc1cc(-c2cccc(-c3cc(NC(=O)c4ccnc(C(C)(C)C#N)c4)ccc3C)c2)ncn1 [Example 211]
5.00 to 6.00,6.30 to 7.00,6.30 to 7.00,≥ 7.00,Cc1ncc(NC(=O)c2ccnc(C(C)(C)C#N)c2)cc1-c1ccnc(-c2ccnc(NC(=O)C(C)(C)C)c2)c1 [Example 228]
6.30 to 7.00,≥ 7.00,≥ 7.00,≥ 7.00,Cc1ccc(NC(=O)c2ccnc(C(C)(C)F)c2)cc1-c1nccc(-c2ccnc(NC(=O)C3CC3)c2)n1 [Example 232]
5.00 to 6.00,≥ 7.00,≥ 7.00,≥ 7.00,CNC(=O)c1cc(-c2cccc(-c3cc(NC(=O)c4ccnc(C(C)(C)C#N)c4)ccc3C)n2)ccn1 [Example 234]
5.00 to 6.00,6.00 to 6.30,6.30 to 7.00,≥ 7.00,COC1(C(=O)Nc2cc(-c3cccc(-c4cc(NC(=O)c5ccnc(C(C)(C)C#N)c5)ccc4C)c3)ncn2)CC1 [Example 243]
6.30 to 7.00,≥ 7.00,≥ 7.00,≥ 7.00,Cc1cc(F)c(NC(=O)c2ccnc(C(C)(C)C#N)c2)cc1-c1nccc(-c2ccnc(NC(=O)C3CC3)c2)n1 [Example 244]
5.00 to 6.00,6.30 to 7.00,≥ 7.00,≥ 7.00,CCOc1ncc(-c2cc(NC(=O)c3ccnc(C(C)(C)C#N)c3)ccc2C)cc1-c1ccnc(C(=O)NC)c1 [Example 260]
5.00 to 6.00,6.30 to 7.00,6.30 to 7.00,≥ 7.00,Cc1cc(C(=O)Nc2cnc(C)c(-c3nccc(-c4ccnc(NC(=O)C5CC5)c4)n3)c2)ccn1 [Example 296]
5.00 to 6.00,5.00 to 6.00,5.00 to 6.00,5.00 to 6.00,Cc1ncc(NC(=O)C2CCN(C)C2)cc1-c1nccc(-c2ccnc(NC(=O)C3CC3)c2)n1 (centres unmarked) [Example 334]
